Assay [1] has as its target GST-CBP(1081-1197) bromodomain (Homo sapiens (Human), UniProt Q92793). In words: CBP AlphaScreen Assay. Particulars: binding to biotin-H4(1-21) Ac-K5/8/12/16 peptide. The procedure:
(§1) Specific binding of the CBP or BRD4 bromodomain to the acetylated peptide derived from the H4 histone substrate (tetra acetylated H4(1-21) Ac-K5/8/12/16) was measured in absence or presence of inhibitors.
(§2) The standard dose response curves were fitted by Genedata Screener software using the variable-slope model: Signal=Signalnegative control+(SignalDMSO control−Signalnegative control)/(1+(IC50/Dose)^Hill slope).
(§3) Only Signal and Dose in the equation were treated as known values.

In the next assay the target is BRD4(49-170) bromodomain (Homo sapiens (Human), UniProt O60885). In words: BRD4 AlphaScreen Assay. Particulars: binding to biotin-H4(1-21) Ac-K5/8/12/16 peptide. Here is the method: as §1, §2, §3

Bounds are passed on as bounds.

GST-CBP(1081-1197) bromodomain, sequence (Q92793 1081-1197): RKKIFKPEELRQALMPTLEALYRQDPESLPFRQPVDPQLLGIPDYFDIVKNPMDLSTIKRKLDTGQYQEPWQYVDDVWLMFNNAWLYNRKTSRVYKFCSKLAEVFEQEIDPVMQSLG

`CC(=O)N1CCn2c(C)nc(-c3ccc4c(c3)c(-c3cnn(C)c3)nn4C)c2C1` [Example 47, 1-(3-methyl-1-(1-methyl-3-(1-methyl-1H-pyrazol-4-yl)-1H-indazol-5-yl)-5,6-dihydroimidazo[1,5-a]pyrazin-7(8H)-yl)ethan-1-one]: the IC50 in assay [1] was 153 nM; on BRD4(49-170) bromodomain, greater than 10000 nM.

For the compound `CNC(=O)N1CCn2c(C)nc(-c3ccc4c(c3)c(-c3cnn(C)c3)nn4C)c2C1` [Example 48, N,3-dimethyl-1-(1-methyl-3-(1-methyl-1H-pyrazol-4-yl)-1H-indazol-5-yl)-5,6-dihydroimidazo[1,5-a]pyrazine-7(8H)-carboxamide], the half-maximal inhibitory concentration (IC50) in assay [1] is 36 nM; at BRD4(49-170) bromodomain, greater than 10000 nM.

`CC(=O)N1CCn2c(C(C)C)nc(-c3ccc4c(c3)c(-c3cnn(C)c3)nn4C)c2C1` [Example 49, 1-(3-isopropyl-1-(1-methyl-3-(1-methyl-1H-pyrazol-4-yl)-1H-indazol-5-yl)-5,6-dihydroimidazo[1,5-a]pyrazin-7(8H)-yl)ethan-1-one]: the half-maximal inhibitory concentration (IC50) in assay [1] was 67 nM; on BRD4(49-170) bromodomain, greater than 10000 nM.

As to `CNC(=O)N1CCn2c(C(C)C)nc(-c3ccc4c(c3)c(-c3cnn(C)c3)nn4C)c2C1` [Example 50, 3-isopropyl-N-methyl-1-(1-methyl-3-(1-methyl-1H-pyrazol-4-yl)-1H-indazol-5-yl)-5,6-dihydroimidazo[1,5-a]pyrazine-7(8H)-carboxamide], the IC50 in assay [1] is 12 nM; on BRD4(49-170) bromodomain, greater than 10000 nM.

`CC(=O)N1CCn2c(C3CCNCC3)nc(-c3ccc4c(c3)c(-c3cnn(C)c3)nn4C)c2C1` [Example 51, 1-(1-(1-methyl-3-(1-methyl-1H-pyrazol-4-yl)-1H-indazol-5-yl)-3-(piperidin-4-yl)-5,6-dihydroimidazo[1,5-a]pyrazin-7(8H)-yl)ethan-1-one]: the 50% inhibitory concentration (IC50) in assay [1] was 149 nM; at BRD4(49-170) bromodomain, greater than 10000 nM.

Regarding `CNC(=O)N1CCn2c(C3CCNCC3)nc(-c3ccc4c(c3)c(-c3cnn(C)c3)nn4C)c2C1` [Example 52, N-methyl-1-(1-methyl-3-(1-methyl-1H-pyrazol-4-yl)-1H-indazol-5-yl)-3-(piperidin-4-yl)-5,6-dihydroimidazo[1,5-a]pyrazine-7(8H)-carboxamide], the figures for the half-inhibitory concentration (IC50) (in assay [1]; at BRD4(49-170) bromodomain) were 20 nM and greater than 10000 nM, respectively.

Regarding `CC(=O)N1CCC(c2nc(-c3ccc4c(c3)c(-c3cnn(C)c3)nn4C)c3n2CCN(C(C)=O)C3)CC1` [Example 53, 1-(4-(7-acetyl-1-(1-methyl-3-(1-methyl-1H-pyrazol-4-yl)-1H-indazol-5-yl)-5,6,7,8-tetrahydroimidazo[1,5-a]pyrazin-3-yl)piperidin-1-yl)ethan-1-one], the values for the half-maximal inhibitory concentration (IC50) (in assay [1]; at BRD4(49-170) bromodomain) were 176 nM and greater than 10000 nM, respectively.

Regarding `CC(=O)N1CCn2c(C3CCN(C)CC3)nc(-c3ccc4c(c3)c(-c3cnn(C)c3)nn4C)c2C1` [Example 54, 1-(1-(1-methyl-3-(1-methyl-1H-pyrazol-4-yl)-1H-indazol-5-yl)-3-(1-methylpiperidin-4-yl)-5,6-dihydroimidazo[1,5-a]pyrazin-7(8H)-yl)ethan-1-one], the half-inhibitory concentration (IC50) was 141 nM in assay [1] and greater than 10000 nM on BRD4(49-170) bromodomain.

For the compound `CNC(=O)N1CCn2c(C3CCN(C(C)=O)CC3)nc(-c3ccc4c(c3)c(-c3cnn(C)c3)nn4C)c2C1` [Example 55, 3-(1-acetylpiperidin-4-yl)-N-methyl-1-(1-methyl-3-(1-methyl-1H-pyrazol-4-yl)-1H-indazol-5-yl)-5,6-dihydroimidazo[1,5-a]pyrazine-7(8H)-carboxamide], the half-inhibitory concentration (IC50) in assay [1] is 18 nM; at BRD4(49-170) bromodomain, greater than 10000 nM.

In the case of `CNC(=O)N1CCn2c(C3CCN(C)CC3)nc(-c3ccc4c(c3)c(-c3cnn(C)c3)nn4C)c2C1` [Example 56, N-methyl-1-(1-methyl-3-(1-methyl-1H-pyrazol-4-yl)-1H-indazol-5-yl)-3-(1-methylpiperidin-4-yl)-5,6-dihydroimidazo[1,5-a]pyrazine-7(8H)-carboxamide], the values for the IC50 (in assay [1]; on BRD4(49-170) bromodomain) were 22 nM and greater than 10000 nM, respectively.

For `CNC(=O)c1ccc(-c2cc3cccc(-c4nc(C5CCOCC5)n5c4CN(C(=O)NC)CC5)c3cn2)cn1` [Example 57, N-methyl-1-(3-(6-(methylcarbamoyl)pyridin-3-yl)isoquinolin-8-yl)-3-(tetrahydro-2H-pyran-4-yl)-5,6-dihydroimidazo[1,5-a]pyrazine-7(8H)-carboxamide], the IC50 in assay [1] was 1 nM; on BRD4(49-170) bromodomain, 5970 nM.

In the case of `CNC(=O)N1CCn2c(C3CC(F)(F)C3)nc(-c3cccc4nc(-c5cnn(C)c5)c(C(F)F)cc34)c2C1` [Example 58, 3-(3,3-difluorocyclobutyl)-1-(3-(difluoromethyl)-2-(1-methyl-1H-pyrazol-4-yl)quinolin-5-yl)-N-methyl-5,6-dihydroimidazo[1,5-a]pyrazine-7(8H)-carboxamide], the IC50 in assay [1] is 49 nM; at BRD4(49-170) bromodomain, greater than 10000 nM.

For the compound `CNC(=O)N1CCn2c(C3CCC(F)(F)CC3)nc(-c3cccc4nc(-c5cnn(C)c5)c(C(F)F)cc34)c2C1` [Example 59, 3-(4,4-difluorocyclohexyl)-1-(3-(difluoromethyl)-2-(1-methyl-1H-pyrazol-4-yl)quinolin-5-yl)-N-methyl-5,6-dihydroimidazo[1,5-a]pyrazine-7(8H)-carboxamide], the values for the half-maximal inhibitory concentration (IC50) (in assay [1]; on BRD4(49-170) bromodomain) were 5 nM and 19000 nM, respectively.

With `CNC(=O)N1CCn2c(C3CC3(F)F)nc(-c3cccc4nc(-c5cnn(C)c5)c(C(F)F)cc34)c2C1` (stereo not drawn) [Example 60, 3-(2,2-difluorocyclopropyl)-1-(3-(difluoromethyl)-2-(1-methyl-1H-pyrazol-4-yl)quinolin-5-yl)-N-methyl-5,6-dihydroimidazo[1,5-a]pyrazine-7(8H)-carboxamide], the IC50 was 18 nM in assay [1] and 15800 nM on BRD4(49-170) bromodomain.

For the compound `CNC(=O)N1CCn2c(C3CCC(F)(F)C3)nc(-c3cccc4nc(-c5cnn(C)c5)c(C(F)F)cc34)c2C1` (stereo not drawn) [Example 61, 3-(3,3-difluorocyclopentyl)-1-(3-(difluoromethyl)-2-(1-methyl-1H-pyrazol-4-yl)quinolin-5-yl)-N-methyl-5,6-dihydroimidazo[1,5-a]pyrazine-7(8H)-carboxamide], the figures for the 50% inhibitory concentration (IC50) (in assay [1]; at BRD4(49-170) bromodomain) were 25 nM and 13900 nM, respectively.

Consider `CNC(=O)N1CCn2c(C3CC3)nc(-c3cccc4nc(-c5cnn(C)c5)c(C(F)(F)F)cc34)c2C1` [Example 62, 3-cyclopropyl-N-methyl-1-(2-(1-methyl-1H-pyrazol-4-yl)-3-(trifluoromethyl)quinolin-5-yl)-5,6-dihydroimidazo[1,5-a]pyrazine-7(8H)-carboxamide], for which the half-inhibitory concentration (IC50) in assay [1] was determined as 5 nM; at BRD4(49-170) bromodomain it was 13500 nM.

For the compound `CNC(=O)N1CCn2c(C3CCOCC3)nc(-c3cccc4cc(N5CCOCC5)ncc34)c2C1` [Example 63, N-methyl-1-(3-morpholinoisoquinolin-8-yl)-3-(tetrahydro-2H-pyran-4-yl)-5,6-dihydroimidazo[1,5-a]pyrazine-7(8H)-carboxamide], the concentration for half-maximal inhibition (IC50) is 14 nM in assay [1] and 23600 nM on BRD4(49-170) bromodomain.

For `CNC(=O)N1CCn2c(C3CCOCC3)nc(-c3cccc4nc(-c5cnn(C)c5)c(C#N)cc34)c2C1` [Example 64, 1-(3-cyano-2-(1-methyl-1H-pyrazol-4-yl)quinolin-5-yl)-N-methyl-3-(tetrahydro-2H-pyran-4-yl)-5,6-dihydroimidazo[1,5-a]pyrazine-7(8H)-carboxamide], the half-inhibitory concentration (IC50) in assay [1] was 4 nM; on BRD4(49-170) bromodomain, 22800 nM.

Consider `CNC(=O)N1CCn2c(C3CCOCC3)nc(-c3cccc4nc(-c5cnn(C)c5)c(C(F)(F)F)cc34)c2C1` [Example 65, N-methyl-1-(2-(1-methyl-1H-pyrazol-4-yl)-3-(trifluoromethyl)quinolin-5-yl)-3-(tetrahydro-2H-pyran-4-yl)-5,6-dihydroimidazo[1,5-a]pyrazine-7(8H)-carboxamide], for which the IC50 in assay [1] stood at 4 nM; on BRD4(49-170) bromodomain it was 13700 nM.

For the compound `CNC(=O)N1CCn2c(C3CC(F)(F)C3)nc(-c3cccc4nc(-c5cnn(C)c5)c(C#N)cc34)c2C1` [Example 67, 1-(3-cyano-2-(1-methyl-1H-pyrazol-4-yl)quinolin-5-yl)-3-(3,3-difluorocyclobutyl)-N-methyl-5,6-dihydroimidazo[1,5-a]pyrazine-7(8H)-carboxamide], the IC50 is 36 nM in assay [1] and greater than 25000 nM at BRD4(49-170) bromodomain.

On to `CNC(=O)N1CCn2c(C3CCOCC3)nc(-c3cccc4cc(C5CCOCC5)ncc34)c2C1` [Example 68, N-methyl-3-(tetrahydro-2H-pyran-4-yl)-1-(3-(tetrahydro-2H-pyran-4-yl)isoquinolin-8-yl)-5,6-dihydroimidazo[1,5-a]pyrazine-7(8H)-carboxamide], for which the concentration for half-maximal inhibition (IC50) is 16 nM in assay [1] and greater than 25000 nM on BRD4(49-170) bromodomain.

`CNC(=O)N1CCn2c(C3CC3)nc(-c3cccc4cc(-c5cn(C)nc5C)ncc34)c2C1` [Example 69, 3-cyclopropyl-1-(3-(1,3-dimethyl-1H-pyrazol-4-yl)isoquinolin-8-yl)-N-methyl-5,6-dihydroimidazo[1,5-a]pyrazine-7(8H)-carboxamide]: the results for the IC50 (in assay [1]; at BRD4(49-170) bromodomain) were 17 nM and 10100 nM, respectively.

With `CNC(=O)N1CCn2c(C3CCOCC3)nc(-c3cccc4cc(-c5cn(C)nc5C)ncc34)c2C1` [Example 70, 1-(3-(1,3-dimethyl-1H-pyrazol-4-yl)isoquinolin-8-yl)-N-methyl-3-(tetrahydro-2H-pyran-4-yl)-5,6-dihydroimidazo[1,5-a]pyrazine-7(8H)-carboxamide], the concentration for half-maximal inhibition (IC50) in assay [1] came out at 12 nM; on BRD4(49-170) bromodomain, 12300 nM.

Consider `CNC(=O)N1CCn2c(C3CC(F)(F)C3)nc(-c3cccc4cc(-c5cn(C)nc5C)ncc34)c2C1` [Example 71, 3-(3,3-difluorocyclobutyl)-1-(3-(1,3-dimethyl-1H-pyrazol-4-yl)isoquinolin-8-yl)-N-methyl-5,6-dihydroimidazo[1,5-a]pyrazine-7(8H)-carboxamide], for which the half-inhibitory concentration (IC50) in assay [1] amounted to 38 nM; on BRD4(49-170) bromodomain, 13400 nM.

These data come from patent publication US11058688B2, “Imidazopiperazine inhibitors of transcription activating proteins” (Board of Regents, The University of Texas System, priority 2018, dated 2021).
